Data on five molecules can be found in patent US9321808B2, “Homo- and heterodimeric SMAC mimetic compounds as apoptosis inducers” (BioNTech AG, priority 2012, dated 2016).

Data set [1] concerns the target T1, human XIAP linker-BIR2-BIR3 (Homo sapiens, UniProt P98170).
T1 construct: human XIAP from residue 124 to 356 (linker-BIR2-BIR3); made in house; host or cells: Escherichia coli BL21
Briefly: Fluorescence polarization competitive binding, XIAP linker-BIR2-BIR3. As to conditions: displacement of SMAC-1F probe (1 nM) from XIAP linker-BIR2-BIR3-His-tag (3 nM); average of three independent measurements. On the procedure: (§1) Data were analyzed using Prism 4.0 software (Graphpad Software).

The test system of data set [2] is MDA-MB-231 (breast epithelial adenocarcinoma). Briefly: Standalone cytotoxicity, MTT assay, MDA-MB-231. As to conditions: reported as activity range, read-out: MDA-MB-231 IC50 (μM ± standard Deviation). In kind it is cell-based, human. The method, then:
(§2) Human cell lines MDA-MB-231 (breast epithelial adenocarcinoma), HL-60 (promieloblast cells) and PC-3 (prostate adenocarcinoma cells) were purchased from Istituto Zooprofilattico di Brescia (www.bs.izs.it). Reagents for cell culture were purchased from Sigma, unless otherwise indicated. Cells were grown on Plastic Petri dishes (Falcon) in RPMI 1640 medium supplemented with 2 mM L-glutamine, Penicillin (100 U/mL)/Streptomicin (100 μg/mL), 10% Fetal Bovine Serum. A sub-cultivation ratio of 1:4 was used. Cells were maintained at 37° C. in an atmosphere of 95% air and 5% CO2.
(§3) Cells were seeded in 96-well flat bottom cell culture plates at a density of 5000 cells/well in 100 μL of culture medium. HL-60 cells were immediately stimulated with the indicated compounds for 96 hours in the incubator. MDA-MB-231 and PC-3 cells were allowed to adhere for 24 hours. prior to be exposed to the compounds for 96 hours in the incubator. Cells were exposed to the following concentrations of the compounds: 50 nM, 100 nM, 200 nM, 500 nM, 1 μM, 5 μM, 10 μM, 50 μM and 100 μM. Each point was done in triplicate. The cellular growth inhibitory effect of our compounds was evaluated using the MTT assay (Sigma). After 96 hours of treatment, 10 μL of MTT reagent solution (5 mg of MTT powder/mL diluted in Phosphate Buffer Salt saline solution) were added in each well and allowed to react for 3 hours in the incubator. After 3 hours cells were solubilized in Lysis Buffer (10% SDS/0.1% HCl in water, 100 μL for each well) for 24 hours at 37° C. Finally, the absorbance was measured at 570 nm using a multiplate reader. Absorbance values were collected and IC50 values were determined using GraphPad Prism5 software. The experiments were repeated twice.
After 96 hours of treatment, 10 μl of MTT reagent solution (5 mg of MTT powder/ml diluted in Phosphate Buffer Salt saline solution) were added in each well and allowed to react for 3 hours in the incubator. After 3 hours cells were solubilized in Lysis Buffer (10% SDS/0.1% HCl in water, 100 μl for each well) for 24 hours at 37° C. Finally, the absorbance was measured at 570 nm using a multiplate reader. Absorbance values were collected and IC50/IC80 values were determined using GraphPad Prism5 software.

Another data set concerns the target T2, cIAP1-BIR3 (Homo sapiens, UniProt Q13490).
T2 construct: 6xHis (C); made in house; host or cells: Escherichia coli BL21(DE3)
In words: Fluorescence polarization binding, cIAP1 BIR3. Particulars: displacement of fluorescent probe (2 nM) from cIAP1-BIR3 (10 nM); average of three independent measurements; read-out: cIAP1 IC50(av). The method, then:
(§4) The plasmids were used to transform Escherichia coli strain BL21(DE3). The recombinant proteins were purified using Ni-NTA (His-trap FFcrude, Ge-Healthcare), followed by gel filtration (Superdex 200, Ge-Healthcare). The recombinant proteins were eluted in 20 mM Tris pH 8.0, 250 mM NaCl and 10 mM DTT. Aliquoted proteins were conserved at −80° C.
(§5) The fluorescently-labelled Smac peptide (AbuRPF-K(5-Fam)-N1-12, final concentration of 2 nM), and increasing concentrations of cIAP1- and cIAP2-BIR3 from 0 to 20 μM, were added to an assay buffer consisting of 100 mM potassium phosphate, pH 7.5, 100 μg/ml bovine γ-globulin, 0.02% sodium azide. […] All experiments were performed in black, flat-bottom 96-well microplates (Greiner bio-one). 4-substituted azabicyclo[5.3.0]alkane Smac-mimetics were evaluated for their ability to displace the fluorescent probe from recombinant protein. […] After 15 minutes mixing on a shaker, and 3 hours incubation at room temperature, fluorescent polarization was measured on the Ultra plate reader (Tecan).

In another data set the target is T3, cIAP2-BIR3 (Homo sapiens, UniProt Q13489).
T3 construct: 6xHis (C); made in house; host or cells: Escherichia coli BL21(DE3)
Briefly: Fluorescence polarization binding, cIAP2 BIR3. On the procedure: as §4, §5

In a further data set the target is T4, human XIAP BIR3 domain (Homo sapiens, UniProt P98170).
T4 construct: human XIAP BIR3 domain from residue 241 to 356; made in house; host or cells: Escherichia coli BL21
Briefly: Fluorescence polarization competitive binding, XIAP BIR3. Particulars: displacement of FITC-SMAC probe from XIAP BIR3-His-tag (60 nM); average of three independent measurements. On the procedure: as §1

For data set [3], the system named is IGROV-1 human ovarian carcinoma xenografted s.c. Particulars: for TVI %, tumor volume inhibition % in treated over control mice: IGROV-1 s.c., assessed 7 days after last treatment. The method, then:
(§6) All experiments of antitumor activity were carried out using female athymic Swiss nude mice, 8-10 weeks-old (Charles River, Calco, Italy). Mice were maintained in laminar flow rooms keeping temperature and humidity constant. Mice had free access to food and water. Experiments were approved by the Ethics Committee for Animal Experimentation of the Istituto Nazionale Tumori of Milan according to institutional guidelines.
(§7) Chem. Soc. […] The drugs were delivered i.p. in a volume of 10 ml/Kg of body weight.
For subcutaneous (s.c.) growth, exponentially growing tumor cells (5×10^6 cells/mouse) were s.c. injected into the right flank of athymic nude mice. The tumor line was achieved by serial s.c. passages of fragments (about 2×2×6 mm) from regrowing tumors into healthy mice. Groups of five mice bearing bilateral s.c. tumors were employed. Tumor fragments were implanted on day 0 and tumor growth was followed by biweekly measurements of tumor diameters with a Vernier caliper. […] Treatment started three days after tumor implant, when tumors were just palpable. […] The toxicity of the drug treatment was determined as body weight loss and lethal toxicity. Deaths occurring in treated mice before the death of the first control mouse were ascribed to toxic effects. Student t test (two tailed) exact test was used for statistical comparison of tumor volumes in mice.

Data set [4] relates to IGROV-1 human ovarian carcinoma xenografted i.p. Briefly: Ovarian tumor i.p. xenograft, survival. As to conditions: 5 mg/kg, qdx4-5/wx2-3w, IGROV-1 i.p. The class given is in vivo, athymic nude mice. The method, then:
as §6, §7
The IGROV-1 tumor was adapted to grow in the peritoneal cavity (i.p.) and maintained by serial i.p. passages of ascitic cells into healthy mice. In this tumor model, hemorrhagic ascites with diffuse peritoneal carcinomatosis develops and the animal eventually die. For evaluation of antitumor activity, 2.5×10^6 ascitic cells in 0.2 ml of saline were injected i.p. into mice. Locoregional administration was employed. […] For antitumor activity studies, experimental groups were inspected daily and weighed three times weekly. Prior to impending death, mice were sacrificed by cervical dislocation and day of sacrifice was considered as day of death and the median survival time (MST) was calculated for each group. Antitumor activity was assessed as T/C %, i.e., the ratio of MST in treated mice over that of control mice×100. For statistical analysis, percent survivorship over time was estimated by the Kaplan-Meier product method and compared using the log-rank test.
Treatment started the day after tumor cell inoculation.

In data set [5] the test system is HL-60 (promieloblast cells). Briefly: Standalone cytotoxicity, MTT assay, HL-60. The class given is cell-based, human. As to conditions: reported as activity range, read-out: HL-60 IC50 (μM ± standard Deviation). On the procedure: as §2
as §3, with “The experiments were repeated twice.” left out
(§8) After 96 hours of treatment, 10 μl of MTT reagent solution (5 mg of MTT powder/ml diluted in Phosphate Buffer Salt saline solution) were added in each well and allowed to react for 3 hours in the incubator. […] Finally, the absorbance was measured at 570 nm using a multiplate reader. Absorbance values were collected and IC50/IC80 values were determined using GraphPad Prism5 software.

Data set [6] has as its system PC-3 (prostate adenocarcinoma cells). Briefly: Standalone cytotoxicity, MTT assay, PC-3. As to conditions: 96 hours treatment, reported as activity range, read-out: PC-3 IC50 (μM ± standard Deviation). In kind it is cell-based, human. The method, then:
as §2
as §3, with “The experiments were repeated twice.” left out
as §8

Another data set addresses XIAP (Homo sapiens, UniProt P98170). As to conditions: technical background; read-out: Kd, binding to XIAP; cited from earlier work.
[7] abbreviates: Homo sapiens, MDA-MB-231, 96 hours treatment.
The mark [8] stands for this setting: displacement of fluorescent probe (2 nM) from cIAP2 (25 nM), average of three independent measurements, read-out: cIAP2 IC50(av).

Read-outs that look alike come from different tables or passages of the source.

T3 sequence (Q13489 237-349): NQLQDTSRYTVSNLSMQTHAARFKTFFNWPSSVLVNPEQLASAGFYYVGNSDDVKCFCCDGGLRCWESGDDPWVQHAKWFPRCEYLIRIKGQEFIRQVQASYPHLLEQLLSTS
T2 sequence (Q13490 251-363): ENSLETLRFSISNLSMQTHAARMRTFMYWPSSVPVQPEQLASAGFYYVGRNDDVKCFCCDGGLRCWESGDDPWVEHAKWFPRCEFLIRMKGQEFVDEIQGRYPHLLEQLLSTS
T1 sequence (P98170 124-356): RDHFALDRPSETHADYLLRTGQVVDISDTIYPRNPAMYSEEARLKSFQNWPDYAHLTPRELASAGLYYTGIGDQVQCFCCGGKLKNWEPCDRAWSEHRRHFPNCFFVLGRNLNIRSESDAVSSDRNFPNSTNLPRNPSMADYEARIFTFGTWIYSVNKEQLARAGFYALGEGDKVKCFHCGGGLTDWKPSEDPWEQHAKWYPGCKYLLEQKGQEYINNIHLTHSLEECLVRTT
T4 sequence (P98170 241-356): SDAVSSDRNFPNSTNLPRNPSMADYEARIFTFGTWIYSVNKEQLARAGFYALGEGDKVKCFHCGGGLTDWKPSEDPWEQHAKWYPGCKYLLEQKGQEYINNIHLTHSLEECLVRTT
Sequence of XIAP (P98170 whole entry): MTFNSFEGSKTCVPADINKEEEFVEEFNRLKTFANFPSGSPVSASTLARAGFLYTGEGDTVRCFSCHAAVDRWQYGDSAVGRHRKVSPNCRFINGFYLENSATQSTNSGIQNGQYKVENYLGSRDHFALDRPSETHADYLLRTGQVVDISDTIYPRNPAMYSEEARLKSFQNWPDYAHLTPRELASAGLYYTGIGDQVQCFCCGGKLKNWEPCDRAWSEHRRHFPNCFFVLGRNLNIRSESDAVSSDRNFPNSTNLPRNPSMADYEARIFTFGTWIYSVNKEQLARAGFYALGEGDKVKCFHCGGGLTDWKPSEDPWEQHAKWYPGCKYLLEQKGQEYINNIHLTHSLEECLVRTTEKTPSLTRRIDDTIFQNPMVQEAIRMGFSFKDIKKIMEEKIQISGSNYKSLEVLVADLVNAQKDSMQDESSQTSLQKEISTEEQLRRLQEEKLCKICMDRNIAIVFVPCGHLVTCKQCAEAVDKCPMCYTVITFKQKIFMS

As for `CC[C@H](NC)C(=O)N[C@@H]1C(=O)N2[C@@H](CC[C@@H]1CNC(=O)CCc1cn(CCOCCOCCOCCNC(=O)[C@@H](NC(=O)[C@@H]3CC[C@@H]4CC[C@H](CO)[C@H](NC(=O)[C@H](CC)NC)C(=O)N43)c3ccccc3)nn1)CC[C@H]2C(=O)NC(c1ccccc1)c1ccccc1` [Compound 34a], the IC50 in data set [1] is 0.11 nM; in [2] (setting [7]), 10 to 50 µM; on cIAP1-BIR3, 3.2 nM; on cIAP2-BIR3 (setting [8]) it was 0.3 nM; at human XIAP BIR3 domain, 31.1 nM.
As for `CN[C@@H](C)C(=O)N[C@H]1CCCC[C@H]2CC[C@@H](C(=O)N[C@@H](c3ccccc3)c3cn(CCCCc4ccc(CCCCn5cc([C@@H](NC(=O)[C@@H]6CC[C@@H]7CCCC[C@H](NC(=O)[C@H](C)NC)C(=O)N76)c6ccccc6)nn5)cc4)nn3)N2C1=O` [SM164, reference compound], the IC50 was less than 1 µM in data set [2] (96 hours treatment), 0.46 nM at cIAP1-BIR3, less than 1 µM in data set [5] (96 hours treatment) and 10 to 50 µM in data set [6]. The “TVI %, tumor volume inhibition % in treated over control mice” value in data set [3] (i.p., 5 mg/kg, qdx4-5/wx3w) was 0%. In data set [3] (mouse, in vivo, ip, 5 mg/kg), the “BWL %, body weight loss % induced by treatment” value was determined as 5%. In addition, the “MST, median survival time” value in [4] is 37 days. Further, the “Range of the days of death” value in data set [4] was in the range of 24 to 49 days.
As for `CC[C@H](NC)C(=O)N[C@@H]1C(=O)N2[C@@H](CC[C@@H]1CO)CC[C@H]2C(=O)N[C@@H](c1ccccc1)c1cn(CCCCc2ccc(CCCCn3cc([C@@H](NC(=O)[C@@H]4CC[C@@H]5CC[C@H](CO)[C@H](NC(=O)[C@H](CC)NC)C(=O)N54)c4ccccc4)nn3)cc2)nn1` [Compound 28a], the IC50 in data set [2] (setting [7]) is less than 1 µM; in [5] (Homo sapiens, HL-60, 96 hours treatment), less than 1 µM; in data set [6] (Homo sapiens), more than 50 µM; at cIAP2-BIR3, 2.5 nM. The Tolerability result in data set [3] (i.p., 5 mg/Kg, qdx5/wx3) is listed as “well tolerated”. For the same molecule, the “Tox, dead/treated mice” value in data set [3] (i.p., 5 mg/kg, qdx4-5/wx3w) was 0/4. Besides, in data set [3] (i.p., 5 mg/kg, qdx4-5/wx3w), the “TVI %, tumor volume inhibition % in treated over control mice” value is 66%. The “BWL %, body weight loss % induced by treatment” value in [3] (i.p., 5 mg/kg, qdx4-5/wx3w, the highest change is reported) is 2%. Besides, in [4], the “MST, median survival time” value turned out to be 36 days. In data set [4], the “Range of the days of death” value fell in the range of 28 to 56 days.
For the molecule `CC[C@H](NC)C(=O)N[C@@H]1C(=O)N2[C@@H](CC[C@@H]1CO)CC[C@H]2C(=O)N[C@H](C(=O)NCCCCNc1c(NCCCCNC(=O)[C@@H](NC(=O)[C@@H]2CC[C@@H]3CC[C@H](CO)[C@H](NC(=O)[C@H](CC)NC)C(=O)N32)c2ccccc2)c(=O)c1=O)c1ccccc1` [Compound 30b], the IC50 in data set [1] is 0.8 nM; in data set [2] (setting [7]) it was 10 to 50 µM; at cIAP1-BIR3, 2.6 nM; on cIAP2-BIR3 (setting [8]), 2.9 nM; at human XIAP BIR3 domain, 26.7 nM.

B1: mature Smac protein: "second mitochondria-derived activator of caspases"; "N-terminal mitochondrial targeting sequence that is proteolytically removed during maturation to the mature polipeptide" (protein, UniProt Q9NR28 22-239, looked up)
Diablo IAP-binding …: LCVPVVANFKKRCFSELIRPWHKTVTIGFGVTLCAVPIAQKSEPHSLSSEALMRRAVSLVTDSTSTFLSQTTYALIEAITEYTKAVYTLTSLYRQYTSLLGKMNSEEEDEVWQVIIGARAEMTSKHQEYLKLETTWMTAVGLSEMAAEAAYQTGADQASITARNHIQLVKLQVEEVHQLSRKAETKLAEAQIEELRQKTQEEGEERAESEQEAYLRED
Turning to B1, the Kd in the data set with XIAP is 420 nM.
